Source: patent US20140213538A1, “LYSOPHOSPHATIDIC ACID RECEPTOR ANTAGONISTS” (InterMune, Inc., priority 2013, published 2014)

Molecular target: T1, LPA/S1P GPCR of interest (Homo sapiens, UniProt Q92633)
T1 construct: host or cells: CHO
Experiment: Beta-Arrestin based assay (PathHunter)
Type: cell-based
Summary of the method: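 EA Parental CHO cells (DiscoverX) were transfected with FuGENE (Roche) using CMV promoter-driven DNA constructs encoding the LPA/S1P GPCR of interest fused to a ProLink tag. Beta-arrestin recruitment in agonist mode was assessed 24-48 hrs later with PathHunter kits. Tests ran in quadruplicate in white 384 well plates, and end point luminescence was fit to a 4 parameter logistic function.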

T1 sequence (Q92633 whole entry): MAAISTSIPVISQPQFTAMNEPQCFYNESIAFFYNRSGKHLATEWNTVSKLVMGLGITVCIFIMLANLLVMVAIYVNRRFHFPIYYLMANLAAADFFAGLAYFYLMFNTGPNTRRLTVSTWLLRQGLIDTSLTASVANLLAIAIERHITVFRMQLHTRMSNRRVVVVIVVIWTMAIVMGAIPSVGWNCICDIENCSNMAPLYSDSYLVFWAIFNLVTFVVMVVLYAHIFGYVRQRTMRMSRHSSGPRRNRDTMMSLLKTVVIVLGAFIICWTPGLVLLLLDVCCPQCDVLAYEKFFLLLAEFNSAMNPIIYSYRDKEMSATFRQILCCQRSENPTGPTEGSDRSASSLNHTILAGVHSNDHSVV

Compound	EC50
COc1cc(C2(C(=O)O)CC2)ccc1-c1cc2sc(-c3snc(C)c3NC(=O)O[C@H](C)c3ccccc3)cc2s1 [IT360]	> 500 nM
Cc1nsc(-c2cc3sc(-c4ccc(C5(C(=O)O)CC5)cc4OC(F)(F)F)cc3s2)c1NC(=O)O[C@H](C)c1ccccc1 [IT387]	50 to 500 nM
Cc1nsc(-c2cc3sc(-c4ccc5occ(C6(C(=O)O)CC6)c5c4)cc3s2)c1NC(=O)O[C@H](C)c1ccccc1 [IT352]	> 500 nM
C[C@@H](OC(=O)Nc1c(-c2cc3sc(-c4ccc(C5(C(=O)O)CC5)c(S(C)(=O)=O)c4)cc3s2)cnn1C)c1ccccc1 [IT441]	> 500 nM
C[C@H](NC(=O)C#Cc1ccc(-c2cnn(C)c2NC(=O)O[C@H](C)c2ccccc2)cc1)C(=O)O [IT400]	> 500 nM
CC(C)[C@H](NC(=O)C#Cc1ccc(-c2cnn(C)c2NC(=O)O[C@H](C)c2ccccc2)cc1)C(=O)O [IT404]	> 500 nM
Cc1nsc(-c2cc3sc(-c4cc(Cl)c(C5(C(=O)O)CC5)cc4F)cc3s2)c1NC(=O)O[C@H](C)c1ccccc1 [IT286]	50 to 500 nM
Cc1noc(-c2ccc(-c3ccc(Oc4ncoc4C(=O)O)cc3)cc2)c1NC(=O)O[C@H](C)c1ccccc1 [IT419]	50 to 500 nM
Cc1cc(C2(C(=O)O)CC2)ccc1-c1cc2sc(-c3snc(C)c3NC(=O)O[C@H](C)c3ccccc3)cc2s1 [IT361]	< 50 nM
C[C@@H](OC(=O)Nc1c(-c2cc3sc(-c4cnc(C5(C(=O)O)CC5)s4)cc3s2)cnn1C)c1ccccc1 [IT249]	50 to 500 nM
C[C@@H](OC(=O)Nc1c(-c2ccc(-c3ccc(OC(C)(C)C(=O)O)cc3)cc2)oc2ccccc12)c1ccccc1 [IT508]	50 to 500 nM
C[C@@H](OC(=O)Nc1c(-c2cc3sc(-c4ccc(CC(=O)O)c(S(C)(=O)=O)c4)cc3s2)nnn1C)c1ccccc1 [IT443]	> 500 nM
C[C@@H](OC(=O)Nc1c(-c2cc3sc(-c4cnc(C5(C(=O)O)CC5)c(F)c4)cc3s2)nnn1C)c1ccccc1 [IT393]	< 50 nM
Cc1nsc(-c2cc3sc(-c4ccc(C5(C(=O)O)CC5)nc4)cc3s2)c1NC(=O)O[C@H](C)c1ccccc1 [IT271]	50 to 500 nM
COc1cc(-c2cc3sc(-c4nnn(C)c4NC(=O)O[C@H](C)c4ccccc4)cc3s2)ccc1C1(C(=O)O)CC1 [IT330]	50 to 500 nM
Cc1nsc(-c2cc3sc(-c4ccc5[nH]c(C6(C(=O)O)CC6)nc5c4)cc3s2)c1NC(=O)O[C@H](C)c1ccccc1 [IT421]	> 500 nM
Cc1nsc(-c2cc3sc(-c4ccc(CC(=O)O)c(C(F)(F)F)c4)cc3s2)c1NC(=O)O[C@H](C)c1ccccc1 [IT204]	> 500 nM
COc1cc(CC(=O)O)ccc1-c1cc2sc(-c3snc(C)c3NC(=O)O[C@H](C)c3ccccc3)cc2s1 [IT163]	> 500 nM
C[C@@H](OC(=O)Nc1c(-c2ccc(C#CC(=O)NC3(C(=O)O)CC3)cc2)cnn1C)c1ccccc1 [IT405]	> 500 nM
C[C@@H](OC(=O)Nc1c(-c2cc3sc(-c4ccc(CC(=O)O)c(S(C)(=O)=O)c4)cc3s2)cnn1C)c1ccccc1 [IT445]	> 500 nM
C[C@@H](OC(=O)Nc1c(-c2cc3sc(-c4ccc(C5(C(=O)O)CC5)c5ccccc45)cc3s2)cnn1C)c1ccccc1 [IT320]	> 500 nM
C[C@@H](OC(=O)Nc1c(-c2ccc(C#CC(=O)Nc3ccc(C(=O)O)cc3)cc2)cnn1C)c1ccccc1 [IT431]	> 500 nM
Cc1nsc(-c2cc3sc(-c4ccc5scc(CC(=O)O)c5c4)cc3s2)c1NC(=O)O[C@H](C)c1ccccc1 [IT354]	> 500 nM
Cc1nsc(-c2cc3sc(-c4ccc(CC(=O)O)cc4Cl)cc3s2)c1NC(=O)O[C@H](C)c1ccccc1 [IT161]	> 500 nM
COc1cc(C2(C(=O)O)CC2)ccc1-c1cc2sc(-c3nnn(C)c3NC(=O)O[C@H](C)c3ccccc3)cc2s1 [IT357]	50 to 500 nM
C[C@@H](OC(=O)Nc1c(-c2cc3sc(-c4ccc(CC(=O)O)c5ccccc45)cc3s2)nnn1C)c1ccccc1 [IT318]	> 500 nM
Cc1nsc(-c2cc3sc(-c4ccc(-c5nnc(CC(=O)O)s5)cc4)cc3s2)c1NC(=O)O[C@H](C)c1ccccc1 [IT213]	> 500 nM
